Data published in patent US12077503B2, “Substituted cyclic amides and their use as herbicides” (FMC CORPORATION, priority 2015, dated 2024).

How the values were obtained:
Format in all cases: in vivo
[1] = test system: barnyardgrass (Echinochloa crus-galli); test: Test A preemergence; details: Echinochloa crus-galli, pre-emergence, 240 h; for pest or weed control at 125 g/ha: 125 g ai/ha, preemergence, 0 to 100 scale where 0 is no effect and 100 is complete control, read-out: Barnyardgrass plant response rating; for pest or weed control at 500 g/ha: 500 g ai/ha, Preemergence, visual injury vs untreated controls after approximately 10 d, read-out: Barnyardgrass plant response rating (0 to 100 scale where 0 is no effect and 100 is complete control)
In short: (§1)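 Preemergence directed soil spray on seeded pots, or postemergence application to plants 2–10 cm, one- to two-leaf. Solvent mixture non-phytotoxic, with surfactant. Scored ~10 d later, visually, 0–100 vs untreated.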

[2] = test system: barnyardgrass (Echinochloa crus-galli); test: Test B flooded paddy test; details: Echinochloa crus-galli, Flood, 250 g ai/ha; scale of 0 to 100 where 0 is no effect and 100 is complete control; read-out: Barnyardgrass plant response rating
In short: (§2)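 Plants at 2-leaf stage flooded to 3 cm above soil, with compounds applied directly to paddy water and that depth maintained. Plants kept in greenhouse 13–15 d. Visual rating versus controls on a 0 (no effect) to 100 (complete control) scale.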

[3] = test system: sedge, umbrella (small-flower umbrella sedge, Cyperus difformis); test: Test B flooded paddy test; details: Cyperus difformis, Flood, 250 g ai/ha; scale of 0 to 100 where 0 is no effect and 100 is complete control; read-out: Sedge, Umbrella plant response rating
In short: as §2

[4] = test system: ducksalad (Heteranthera limosa); test: Test B flooded paddy test; details: Heteranthera limosa, Flood, 250 g ai/ha; scale of 0 to 100 where 0 is no effect and 100 is complete control; read-out: Ducksalad plant response rating
In short: as §2

[5] = test system: rice (Oryra sativa); test: Test B flooded paddy test; details: Oryza sativa, Flood, 250 g ai/ha; scale of 0 to 100 where 0 is no effect and 100 is complete control; read-out: Rice plant response rating
In short: as §2

[6] = test system: giant foxtail (Setaria faberii); test: Test A postemergence; details: Setaria faberi, post-emergence, 240 h, 125 g ai/ha, postemergence, visual injury rating after approximately 10 d; read-out: Foxtail, Giant plant response rating (0 to 100 scale, 0 no effect, 100 complete control)
In short: as §1

[7] = test system: barnyardgrass (Echinochloa crus-galli); test: Test A postemergence; details: Echinochloa crus-galli, post-emergence, 240 h, 125 g ai/ha, postemergence, visual injury rating after approximately 10 d; read-out: Barnyardgrass plant response rating (0 to 100 scale, 0 no effect, 100 complete control)
In short: as §1

[8] = test system: Galium (catchweed bedstraw, Galium aparine); test: Test A postemergence; details: Galium, post-emergence, 240 h, 125 g ai/ha, postemergence, visual injury rating after approximately 10 d; read-out: Galium plant response rating (0 to 100 scale, 0 no effect, 100 complete control)
In short: as §1

[9] = test system: corn (Zea mays); test: Test A postemergence; details: Zea mays, post-emergence, 240 h, 125 g ai/ha, postemergence, visual injury rating after approximately 10 d; read-out: Corn plant response rating (0 to 100 scale, 0 no effect, 100 complete control)
In short: as §1

[10] = test system: wheat (Triticum aestivum); test: Test A postemergence; details: Triticum aestivum, post-emergence, 240 h, 125 g ai/ha, postemergence, visual injury rating after approximately 10 d; read-out: Wheat plant response rating (0 to 100 scale, 0 no effect, 100 complete control)
In short: as §1

[11] = test system: ragweed (common ragweed, Ambrosia elatior); test: Test A postemergence; details: Ambrosia artemisiifolia, post-emergence, 240 h, 125 g ai/ha, postemergence, visual injury rating after approximately 10 d; read-out: Ragweed plant response rating (0 to 100 scale, 0 no effect, 100 complete control)
In short: as §1

[12] = test system: ryegrass, Italian (Italian ryegrass, Lolium multiflorum); test: Test A postemergence; details: Lolium multiflorum, post-emergence, 240 h, 125 g ai/ha, postemergence, visual injury rating after approximately 10 d; read-out: Ryegrass, Italian plant response rating (0 to 100 scale, 0 no effect, 100 complete control)
In short: as §1

[13] = test system: Kochia (Kochia scoparia); test: Test A postemergence; details: Bassia scoparia, post-emergence, 240 h, 125 g ai/ha, postemergence, visual injury rating after approximately 10 d; read-out: Kochia plant response rating (0 to 100 scale, 0 no effect, 100 complete control)
In short: as §1

[14] = test system: pigweed (Amaranthus retroflexus); test: Test A postemergence; details: Amaranthus retroflexus, post-emergence, 240 h, 125 g ai/ha, postemergence, visual injury rating after approximately 10 d; read-out: Pigweed plant response rating (0 to 100 scale, 0 no effect, 100 complete control)
In short: as §1

[15] = test system: blackgrass (Alopecurus myosuroides); test: Test A postemergence; details: Alopecurus myosuroides, post-emergence, 240 h, 125 g ai/ha, postemergence, visual injury rating after approximately 10 d; read-out: Blackgrass plant response rating (0 to 100 scale, 0 no effect, 100 complete control)
In short: as §1

Row | SMILES | pest or weed control at 125 g/ha [1] | pest or weed control at 500 g/ha [1] | pest or weed control at 250 g/ha [2] | pest or weed control at 250 g/ha [3] | pest or weed control at 250 g/ha [4] | pest or weed control at 250 g/ha [5] | pest or weed control at 125 g/ha [6] | pest or weed control at 125 g/ha [7] | pest or weed control at 125 g/ha [8] | plant injury at 125 g/ha [9] | plant injury at 125 g/ha [10] | pest or weed control at 125 g/ha [11] | pest or weed control at 125 g/ha [12] | pest or weed control at 125 g/ha [13] | pest or weed control at 125 g/ha [14] | pest or weed control at 125 g/ha [15]
1 | Cc1c(F)ccc([C@H]2CN(C)C(=O)[C@@H]2C(=O)Nc2ccccc2F)c1F [Compound 833] | 90% | 90% | 45% | 0% | 85% | 0% | 90% | 90% | 40% | 20% | 0% | 0% | 60% | 30% | 0% | 40%
2 | Cc1c(F)ccc([C@H]2CN(C)C(=O)[C@@H]2C(=O)Nc2ccc(F)c(F)c2F)c1F [Compound 836] | 90% | 90% | 65% | 0% | 95% | 0% | 90% | 100% | 50% | 70% | 40% | 0% | 60% | 50% | 30% | 70%
3 | Cc1c(F)ccc([C@H]2CN(C)C(=O)[C@@H]2C(=O)Nc2ccccc2C(F)(F)F)c1F [Compound 841] | 90% | 100% | 40% | 0% | 80% | 0% | 90% | 80% | 40% | 0% | 0% | 0% | 20% | 30% | 0% | 30%
4 | Cc1c(F)ccc([C@H]2CN(C)C(=O)[C@@H]2C(=O)Nc2ccccc2S(C)(=O)=O)c1F [Compound 842] | 90% | 90% | 65% | 0% | 100% | 0% | 90% | 90% | 50% | 20% | 30% | 30% | 20% | 30% | 30% | 30%
5 | CN1CC(c2cccc(C=O)c2)C(C(=O)Nc2ccccc2F)C1=O (centres unmarked) [Compound 844] | 0% | 20% | 0% | 0% | 0% | 0% | 0% | 0% | 0% | 0% | 0% | 0% | 0% | 0% | 0% | 0%
